Type in all cases: binding
In one assay the target is CDC42BPB/MRCKB (Homo sapiens, UniProt Q9Y5S2).
The target in assay [1] is kinases (KINOMEscan panel) (Homo sapiens, UniProt O43353). To be noted: RIPK2; NEW KINOMEscan.
Assay [2] concerns the target kinases (KINOMEscan panel) (Homo sapiens, UniProt P07948). The note with it: NEW KINOMEscan.
Assay [3] addresses T1, kinases (KINOMEscan panel) (Homo sapiens, UniProt P25098).
T1 sequence (P25098 1-689): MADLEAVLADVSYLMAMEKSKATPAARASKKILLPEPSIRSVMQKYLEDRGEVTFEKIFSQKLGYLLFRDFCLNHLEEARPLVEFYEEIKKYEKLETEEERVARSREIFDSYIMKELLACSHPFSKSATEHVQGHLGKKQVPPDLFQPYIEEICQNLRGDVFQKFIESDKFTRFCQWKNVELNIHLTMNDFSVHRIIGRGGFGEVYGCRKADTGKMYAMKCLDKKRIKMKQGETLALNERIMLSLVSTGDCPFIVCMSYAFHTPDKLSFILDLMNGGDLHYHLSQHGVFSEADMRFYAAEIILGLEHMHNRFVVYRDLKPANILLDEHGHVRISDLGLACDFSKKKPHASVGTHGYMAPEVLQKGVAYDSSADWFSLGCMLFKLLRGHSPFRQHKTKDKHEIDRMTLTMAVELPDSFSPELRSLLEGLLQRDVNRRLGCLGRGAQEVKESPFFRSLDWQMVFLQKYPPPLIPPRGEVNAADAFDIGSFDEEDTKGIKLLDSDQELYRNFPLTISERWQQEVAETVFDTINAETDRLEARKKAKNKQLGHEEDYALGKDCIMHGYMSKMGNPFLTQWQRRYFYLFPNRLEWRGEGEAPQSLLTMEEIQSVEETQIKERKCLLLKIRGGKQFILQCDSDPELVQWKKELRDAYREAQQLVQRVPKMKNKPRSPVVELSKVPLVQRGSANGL
The note with it: NEW KINOMEscan.

In assay [4] the target is T2, kinases (KINOMEscan panel) (Homo sapiens, UniProt Q04771).
T2 sequence (Q04771 21-509): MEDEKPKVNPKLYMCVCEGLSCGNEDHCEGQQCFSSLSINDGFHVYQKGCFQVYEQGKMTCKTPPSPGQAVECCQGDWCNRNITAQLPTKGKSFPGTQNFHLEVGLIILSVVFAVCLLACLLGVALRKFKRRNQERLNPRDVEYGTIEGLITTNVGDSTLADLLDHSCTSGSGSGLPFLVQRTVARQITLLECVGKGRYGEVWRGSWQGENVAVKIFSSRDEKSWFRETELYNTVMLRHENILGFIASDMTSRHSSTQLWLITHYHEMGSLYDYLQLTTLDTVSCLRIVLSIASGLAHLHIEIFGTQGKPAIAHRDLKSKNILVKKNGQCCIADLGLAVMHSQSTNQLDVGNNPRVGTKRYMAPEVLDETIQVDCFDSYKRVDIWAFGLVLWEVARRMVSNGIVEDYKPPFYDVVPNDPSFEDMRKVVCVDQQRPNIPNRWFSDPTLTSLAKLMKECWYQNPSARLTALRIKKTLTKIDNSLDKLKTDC
The note with it: ACVR1; NEW KINOMEscan.

Assay [5] has as its target T3, kinases (KINOMEscan panel) (Homo sapiens, UniProt Q8TDC3).
T3 sequence (Q8TDC3 1-778): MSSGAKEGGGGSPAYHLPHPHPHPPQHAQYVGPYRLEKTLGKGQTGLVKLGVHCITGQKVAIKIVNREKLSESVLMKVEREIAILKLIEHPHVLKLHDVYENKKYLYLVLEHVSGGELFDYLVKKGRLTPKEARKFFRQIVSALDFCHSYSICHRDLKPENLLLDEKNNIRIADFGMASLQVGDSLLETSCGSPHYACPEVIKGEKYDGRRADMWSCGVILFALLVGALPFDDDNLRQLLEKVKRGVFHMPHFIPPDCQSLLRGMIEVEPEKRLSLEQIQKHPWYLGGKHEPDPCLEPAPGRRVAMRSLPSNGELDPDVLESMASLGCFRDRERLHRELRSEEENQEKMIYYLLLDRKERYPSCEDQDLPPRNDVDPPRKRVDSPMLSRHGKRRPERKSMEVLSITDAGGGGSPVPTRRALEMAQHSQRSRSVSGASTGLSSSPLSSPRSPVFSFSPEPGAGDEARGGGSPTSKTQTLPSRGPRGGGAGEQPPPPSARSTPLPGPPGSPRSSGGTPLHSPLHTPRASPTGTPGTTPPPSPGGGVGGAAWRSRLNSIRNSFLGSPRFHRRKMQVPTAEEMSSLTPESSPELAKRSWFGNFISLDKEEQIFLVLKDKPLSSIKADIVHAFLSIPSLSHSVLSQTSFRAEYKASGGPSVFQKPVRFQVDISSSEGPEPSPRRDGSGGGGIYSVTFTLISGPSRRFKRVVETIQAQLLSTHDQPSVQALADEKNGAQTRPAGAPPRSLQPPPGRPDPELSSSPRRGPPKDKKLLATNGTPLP
The note with it: BRSK1; NEW KINOMEscan.

The target of assay [6] is kinases (KINOMEscan panel) (Homo sapiens, UniProt Q9P2K8, S808G).

SMILES strings stand for the structures.

Sequence of CDC42BPB/MRCKB (Q9Y5S2 whole entry): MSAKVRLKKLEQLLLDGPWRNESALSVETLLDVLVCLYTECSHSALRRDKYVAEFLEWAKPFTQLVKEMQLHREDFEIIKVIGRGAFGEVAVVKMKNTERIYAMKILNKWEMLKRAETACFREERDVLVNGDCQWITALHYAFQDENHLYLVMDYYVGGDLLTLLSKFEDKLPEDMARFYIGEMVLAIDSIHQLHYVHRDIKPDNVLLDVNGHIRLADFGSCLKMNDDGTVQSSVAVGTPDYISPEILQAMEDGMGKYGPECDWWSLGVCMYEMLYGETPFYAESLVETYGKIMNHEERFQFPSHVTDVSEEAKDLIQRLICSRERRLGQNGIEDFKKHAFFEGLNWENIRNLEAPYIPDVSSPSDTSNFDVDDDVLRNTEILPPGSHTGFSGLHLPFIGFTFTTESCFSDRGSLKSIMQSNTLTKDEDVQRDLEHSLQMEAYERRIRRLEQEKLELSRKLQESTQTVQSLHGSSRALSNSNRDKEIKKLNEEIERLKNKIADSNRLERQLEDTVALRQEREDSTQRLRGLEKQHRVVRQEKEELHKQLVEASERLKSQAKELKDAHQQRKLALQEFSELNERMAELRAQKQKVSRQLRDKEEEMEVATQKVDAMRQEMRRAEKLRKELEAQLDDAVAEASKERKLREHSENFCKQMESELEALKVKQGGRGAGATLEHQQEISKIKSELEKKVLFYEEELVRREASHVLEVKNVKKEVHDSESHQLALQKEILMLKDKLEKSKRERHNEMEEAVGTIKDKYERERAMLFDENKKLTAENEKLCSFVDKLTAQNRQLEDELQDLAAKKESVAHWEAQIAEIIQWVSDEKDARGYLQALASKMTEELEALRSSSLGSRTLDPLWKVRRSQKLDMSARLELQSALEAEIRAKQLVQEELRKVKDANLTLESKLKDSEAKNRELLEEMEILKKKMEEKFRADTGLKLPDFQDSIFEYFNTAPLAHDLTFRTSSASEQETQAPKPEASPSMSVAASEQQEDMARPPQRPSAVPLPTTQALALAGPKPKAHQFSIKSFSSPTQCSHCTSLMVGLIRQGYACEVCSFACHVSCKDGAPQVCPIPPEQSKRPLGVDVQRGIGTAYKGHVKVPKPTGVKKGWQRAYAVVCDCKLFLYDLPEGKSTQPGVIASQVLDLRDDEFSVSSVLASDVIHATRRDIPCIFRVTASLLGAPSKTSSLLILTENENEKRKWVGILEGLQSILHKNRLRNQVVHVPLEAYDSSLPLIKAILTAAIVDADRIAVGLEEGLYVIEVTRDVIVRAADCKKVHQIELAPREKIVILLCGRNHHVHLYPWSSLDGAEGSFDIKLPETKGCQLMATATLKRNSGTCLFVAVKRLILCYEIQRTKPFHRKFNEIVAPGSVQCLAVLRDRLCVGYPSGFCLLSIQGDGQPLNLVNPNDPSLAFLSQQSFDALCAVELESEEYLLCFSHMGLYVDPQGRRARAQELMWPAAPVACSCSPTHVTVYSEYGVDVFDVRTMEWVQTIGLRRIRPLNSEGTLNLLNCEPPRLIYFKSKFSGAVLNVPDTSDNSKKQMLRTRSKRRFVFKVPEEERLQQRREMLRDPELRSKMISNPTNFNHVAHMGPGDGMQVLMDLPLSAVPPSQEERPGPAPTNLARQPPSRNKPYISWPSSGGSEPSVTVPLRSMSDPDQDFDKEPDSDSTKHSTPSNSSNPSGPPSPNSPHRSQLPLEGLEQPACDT
Sequence of kinases (KINOMEscan panel) (Homo sapiens, UniProt Q9P2K8, S808G) (Q9P2K8 whole entry S808G): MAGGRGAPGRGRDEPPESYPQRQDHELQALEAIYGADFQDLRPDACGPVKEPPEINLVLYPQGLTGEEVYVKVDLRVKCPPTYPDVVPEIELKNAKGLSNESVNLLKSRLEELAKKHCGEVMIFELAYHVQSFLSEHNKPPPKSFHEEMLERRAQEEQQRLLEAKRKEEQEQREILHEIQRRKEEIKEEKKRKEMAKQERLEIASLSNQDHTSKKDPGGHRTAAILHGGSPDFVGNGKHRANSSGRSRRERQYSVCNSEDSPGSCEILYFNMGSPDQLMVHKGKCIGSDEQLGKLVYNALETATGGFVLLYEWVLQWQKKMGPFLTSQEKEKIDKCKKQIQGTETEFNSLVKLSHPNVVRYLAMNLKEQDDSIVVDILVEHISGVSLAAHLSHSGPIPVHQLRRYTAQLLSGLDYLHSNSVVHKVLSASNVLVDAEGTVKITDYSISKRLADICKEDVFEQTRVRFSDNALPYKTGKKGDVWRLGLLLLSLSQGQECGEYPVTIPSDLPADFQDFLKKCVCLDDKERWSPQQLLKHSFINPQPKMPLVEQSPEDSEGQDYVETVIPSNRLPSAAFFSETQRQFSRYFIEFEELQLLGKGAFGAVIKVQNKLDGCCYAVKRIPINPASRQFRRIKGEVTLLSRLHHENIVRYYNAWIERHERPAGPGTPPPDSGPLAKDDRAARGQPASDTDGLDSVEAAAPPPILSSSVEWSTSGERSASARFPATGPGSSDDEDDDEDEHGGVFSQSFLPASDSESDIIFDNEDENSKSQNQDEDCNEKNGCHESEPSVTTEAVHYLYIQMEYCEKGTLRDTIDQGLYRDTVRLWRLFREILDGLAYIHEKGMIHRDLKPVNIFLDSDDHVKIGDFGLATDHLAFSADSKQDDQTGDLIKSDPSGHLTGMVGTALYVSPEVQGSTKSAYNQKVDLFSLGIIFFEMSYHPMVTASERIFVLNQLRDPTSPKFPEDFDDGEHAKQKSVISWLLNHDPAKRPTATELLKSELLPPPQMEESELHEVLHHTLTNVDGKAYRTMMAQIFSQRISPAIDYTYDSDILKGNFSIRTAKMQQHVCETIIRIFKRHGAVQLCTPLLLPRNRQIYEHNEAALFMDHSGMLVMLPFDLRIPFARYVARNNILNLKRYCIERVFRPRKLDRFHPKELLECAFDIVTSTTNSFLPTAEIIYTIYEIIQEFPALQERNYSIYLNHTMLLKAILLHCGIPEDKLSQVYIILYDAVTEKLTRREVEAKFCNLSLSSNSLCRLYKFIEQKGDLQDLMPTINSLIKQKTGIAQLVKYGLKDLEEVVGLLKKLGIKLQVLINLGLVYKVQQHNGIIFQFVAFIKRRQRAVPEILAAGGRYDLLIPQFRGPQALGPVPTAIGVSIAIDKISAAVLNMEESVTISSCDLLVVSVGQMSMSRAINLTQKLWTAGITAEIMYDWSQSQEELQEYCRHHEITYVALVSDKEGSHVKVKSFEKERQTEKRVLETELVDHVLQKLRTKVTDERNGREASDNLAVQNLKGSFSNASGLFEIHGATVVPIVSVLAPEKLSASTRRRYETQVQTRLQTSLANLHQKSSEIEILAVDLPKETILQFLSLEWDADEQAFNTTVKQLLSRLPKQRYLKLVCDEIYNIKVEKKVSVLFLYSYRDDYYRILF
Sequence of kinases (KINOMEscan panel) (Homo sapiens, UniProt O43353) (O43353 whole entry): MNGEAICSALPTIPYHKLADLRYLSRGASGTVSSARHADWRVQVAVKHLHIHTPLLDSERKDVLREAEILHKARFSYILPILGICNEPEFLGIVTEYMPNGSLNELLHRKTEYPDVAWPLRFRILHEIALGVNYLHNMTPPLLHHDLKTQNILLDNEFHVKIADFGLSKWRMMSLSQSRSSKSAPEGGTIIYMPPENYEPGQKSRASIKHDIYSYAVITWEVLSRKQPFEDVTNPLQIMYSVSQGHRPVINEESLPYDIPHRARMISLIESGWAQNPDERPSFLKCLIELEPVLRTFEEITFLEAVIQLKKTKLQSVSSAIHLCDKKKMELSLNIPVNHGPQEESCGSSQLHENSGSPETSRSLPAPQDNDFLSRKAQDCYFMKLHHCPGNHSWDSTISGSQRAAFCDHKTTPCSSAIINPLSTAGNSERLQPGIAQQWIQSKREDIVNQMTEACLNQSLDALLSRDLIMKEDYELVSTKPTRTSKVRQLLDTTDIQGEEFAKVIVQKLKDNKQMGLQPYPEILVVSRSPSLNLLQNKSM
Sequence of kinases (KINOMEscan panel) (Homo sapiens, UniProt P07948) (P07948 whole entry): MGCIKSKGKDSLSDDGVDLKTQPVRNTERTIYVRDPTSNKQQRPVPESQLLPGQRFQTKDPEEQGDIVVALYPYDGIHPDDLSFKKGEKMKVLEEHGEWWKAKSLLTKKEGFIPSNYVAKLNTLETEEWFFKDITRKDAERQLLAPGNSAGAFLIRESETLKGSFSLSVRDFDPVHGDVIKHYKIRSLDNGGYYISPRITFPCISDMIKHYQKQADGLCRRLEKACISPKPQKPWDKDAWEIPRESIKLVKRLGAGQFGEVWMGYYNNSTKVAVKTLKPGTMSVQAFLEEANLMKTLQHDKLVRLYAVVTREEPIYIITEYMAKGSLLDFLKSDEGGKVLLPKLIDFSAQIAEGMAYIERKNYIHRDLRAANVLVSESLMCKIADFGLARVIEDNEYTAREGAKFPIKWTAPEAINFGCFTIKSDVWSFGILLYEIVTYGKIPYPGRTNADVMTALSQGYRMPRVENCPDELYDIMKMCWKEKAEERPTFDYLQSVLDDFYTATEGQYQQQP

Turning to `Cc1cccc(-c2nc(N(C)c3ccc4ncsc4c3)c3ccccc3n2)n1` [NK-161], on CDC42BPB/MRCKB, the “KINOMEscan CDC42BPB/MRCKB” value is 5. Moreover, in assay [1], the “KINOMEscan RIPK2” value was 11. Besides, the “KINOMEscan LYN” value in assay [2] came to 12. In addition, the “KINOMEscan GRK2” value in assay [3] is 9. Further, the “KINOMEscan ACVR1” value in assay [4] was found to be 0. Further, in assay [5], the “KINOMEscan BRSK1” value turned out to be 0. Moreover, the “KINOMEscan EIF2AK4/GCN2(Kin.Dom.2,S808G)” value in assay [6] is on record as 53.
As to `Cc1cccc(-c2nc(Nc3ccc4nn(C)cc4c3)c3ccccc3n2)n1` [NK167], the “KINOMEscan CDC42BPB/MRCKB” value on CDC42BPB/MRCKB turned out to be 0. Besides, the “KINOMEscan RIPK2” value in assay [1] was determined as 3. In addition, the “KINOMEscan LYN” value in assay [2] is recorded as 17. Further, the “KINOMEscan GRK2” value in assay [3] is listed as 0. Also, the “KINOMEscan ACVR1” value in assay [4] is recorded as 0. Further, the “KINOMEscan BRSK1” value in assay [5] amounted to 0. Besides, the “KINOMEscan EIF2AK4/GCN2(Kin.Dom.2,S808G)” value in assay [6] turned out to be 38.

The values above are taken from publication PMC9851200, “Multiparameter phenotypic screening for endogenous TFEB and TFE3 translocation identifies novel chemical series modulating lysosome function” (Autophagy, 2022).
